Each structure is given as a SMILES string.

Test [1] addresses T1, KIF1A-406 (Rattus norvegicus, UniProt F1M4A4).
T1 construct: motor head and neck linker, residues 1-368, followed by 61 residues of Drosophila melanogaster KHC neck coil (printed 'residues 445-405', probably 345-405) for dimerization; C-terminal His6; E. coli-type bacterial expression; homodimer
T1 sequence (F1M4A4 1-368): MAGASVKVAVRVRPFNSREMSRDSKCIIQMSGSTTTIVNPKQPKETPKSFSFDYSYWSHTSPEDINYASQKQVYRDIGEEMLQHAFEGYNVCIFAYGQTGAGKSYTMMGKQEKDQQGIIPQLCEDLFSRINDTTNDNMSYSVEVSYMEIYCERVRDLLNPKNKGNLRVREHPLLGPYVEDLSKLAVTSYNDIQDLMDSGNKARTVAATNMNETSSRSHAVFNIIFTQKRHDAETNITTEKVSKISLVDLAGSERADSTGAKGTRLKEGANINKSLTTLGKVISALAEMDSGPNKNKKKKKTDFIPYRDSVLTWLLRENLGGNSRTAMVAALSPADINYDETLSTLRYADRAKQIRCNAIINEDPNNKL
Put plainly: stopped-flow nucleotide-triggered half-site release of mADP, Michaelis-Menten fit. Format: biochemical. To be noted: one-head-bound complex with 3 μM Taxol-stabilized microtubules, mADP in tethered head; BRB80 (80 mM PIPES, 1 mM MgCl2, pH 6.9), 25 °C; fit ± 95% CI; read-out: Experimental.

The target in the next test is T2, KIF1A-560-GFP (Rattus norvegicus, UniProt F1M4A4).
T2 construct: motor head and neck linker, residues 1-368, followed by Drosophila melanogaster KHC neck coil and coil-1 (216 residues by b8; b50 says additional 216 residues), C-terminal GFP and His6; bacterial expression; homodimer
T2 sequence (F1M4A4 1-368): T1 sequence (F1M4A4 1-368)
In words: single-molecule TIRF microtubule off-rate versus [ADP], hyperbolic fit. Format: binding. To be noted: motor bound to Taxol-stabilized microtubules; BRB80 (80 mM PIPES, pH 6.9), 25 °C; fit ± 95% CI; authors equate K0.5 with KD.

Test [2] has as its target T1, KIF1A-406. In words: stopped-flow dissociation, ADP-bound motor flushed against […] mADP. It is filed as binding. To be noted: no microtubules; BRB80, pH 6.9, 25 °C; b26 prints the error as ± 0.005.

Consider `Nc1ncnc2c1ncn2[C@@H]1O[C@H](COP(=O)(O)OP(=O)(O)OP(=O)(O)O)[C@@H](O)[C@H]1O` [ATP], for which the Km on KIF1A-406 [1] was determined as 119 ± 21 µM. Take `Nc1ncnc2c1ncn2[C@@H]1O[C@H](COP(=O)(O)OP(=O)(O)O)[C@@H](O)[C@H]1O` [ADP]: the affinity at KIF1A-560-GFP, expressed as Kd, was 93 ± 204 µM. Also, the “mADP dissociation rate constant” value on KIF1A-406 [2] stood at 0.26 ± 0.001 s⁻¹.
